# Test results: patent publication US20190343908A1, “Therapeutic Combination for the Treatment of Cancer” (Nerium Biotechnology Inc., priority 2011, published 2019)
# Tests used:
# [1] = test system: LNCaP prostate cancer cell line; assay: Crystal Violet viability assay, LNCaP; format: cell-based, human; settings: for ABSORBANCE: LNCaP, 0.1 μg/mL cisplatin
# Text: (§1) Three different viability assays were chosen to complement each other and yielded results dependent on concentration and cell line: the Methyl Tetrazolium dye assay, the Sulforhodamine B fluorescent dye assay, and the Crystal Violet dye assay.
# The Sulforhodamine B and Crystal Violet assays provide information about protein and were used to complement the Methyl-Tetrazolium dye assay. […] It is used for the quantification of cellular proteins of cultured cells. The assay using Crystal Violet, a dye that binds electrostatically to proteins and stains DNA, provides a reliable, simple assay for measuring viability of cells.
# (§2) The Methyl Tetrazolium, Sulforhodamine B, and Crystal Violet assays were used to assess cell viabilities. The incubation times were 24 hours, 48 hours, and 72 hours. The Nerium oleander extract Anvirzel™ (a hot water extract of oleander obtained from Salud Integral, Honduras) was tested in concentrations ranging from 0.01 ng/mL to 10 ng/mL.
# (§3) Cells were detached by trypsinization (Trypsin-0.25% EDTA, Invitrogen, 25200-072) during the logarithmic phase of culture growth and plated in 96-well plates (18.000 cells/well) (Corning, Costar 359) in a final volume of 200 μl of medium per well. […] The absorbance was measured after 24 hours, 48 hours, and 72 hours of incubation.
# For the Crystal Violet assay, the medium was removed from the 96-well plates, the plates rinsed with PBS (Sigma, P3813) and then the cells were […] by the addition of 10% formalin (MERCK, 1.04003.2500) for 20 minutes at RT. Formalin was removed and 0.25% aqueous crystal violet (Sigma, HT901), dissolved in water, was added for 10 minutes at RT. Unbound Crystal Violet was rinsed by washing with water and finally 33% acetic acid was added to dissolve the dye.
# (§4) The optical density of each plate was measured on a μQuant spectrophotometer and the data were analyzed with Gen5 software (μQuant Biomolecular Spectrophotometer MQX200 and Gen5™ Microplate Data Collection & Analysis software, BioTek® Instruments. Inc, April 2008). Absorbance was measured at 570 nm for all assays and a second wavelength was measured in order to subtract noise. For the Methyl-Tetrazolium assay this second wavelength was 630 nm and for the Sulforhodamine B and Crystal Violet assays it was 690 nm.
# [2] = test system: 22Rv1 (human prostate cancer); assay: Methyl-Tetrazolium (MTT) viability assay, 22Rv1; format: cell-based; settings: for Average absorbance, MTT 24 h / Average absorbance, MTT 48 h / Average absorbance, MTT 72 h: 22Rv1 Run 3
# Text: as §1
# The Methyl-Tetrazolium dye assay measures the activity of enzymes in mitochondria. The dye precursor is taken up by cells, where it undergoes reduction to the purple formazan. It measures only the mitochondrial activity and, thus, it is not always a reliable indication of whether the cells themselves are alive or dead, since even a recently dead cell has […] enzyme activity in mitochondria. Intracellular glucose concentration, pH, and time before assay all affect the measurements.
# as §2, §3
# For the Methyl-Tetrazolium assay, the dye (Sigma, M2128; 5 mg/mL, diluted in phosphate-buffered saline) was added to each well and plates were incubated for 3 hours at 37° C. After the end of the incubation period, the medium was discarded and the cells were rinsed with phosphate-buffered saline. Finally, the formazan crystals were dissolved in dimethylsulphoxide (Sigma, D4540).
# as §4
smiles,measurement,setting,value
N.N.[Cl][Pt][Cl] [cisplatin],CVE Average,"[1]; LNCaP Run 3, 24 h, 0.1 μg/ml CDDP",0.425
same,CVE Average,"[1]; LNCaP Run 3, 24 h, 1 μg/ml CDDP",0.152
same,CVE Average,"[1]; LNCaP Run 3, 24 h, 10 μg/ml CDDP",0.171
same,CVE Average,"[1]; LNCaP Run 3, 24 h, 100 μg/ml CDDP",0.133
same,CVE Average,"[1]; LNCaP Run 3, 48 h, 0.1 μg/ml CDDP",0.387
same,CVE Average,"[1]; LNCaP Run 3, 48 h, 1 μg/ml CDDP",0.24
same,CVE Average,"[1]; LNCaP Run 3, 48 h, 10 μg/ml CDDP",0.267
same,CVE Average,"[1]; LNCaP Run 3, 48 h, 100 μg/ml CDDP",0.3
same,CVE Average,"[1]; LNCaP Run 3, 72 h, 0.1 μg/ml CDDP",0.619
same,CVE Average,"[1]; LNCaP Run 3, 72 h, 1 μg/ml CDDP",0.312
same,CVE Average,"[1]; LNCaP Run 3, 72 h, 10 μg/ml CDDP",0.303
same,CVE Average,"[1]; LNCaP Run 3, 72 h, 100 μg/ml CDDP",0.289
same,ABSORBANCE,[1]; 48 h,0.408
same,ABSORBANCE,[1]; 72 h,0.448
same,Average CVE 24 h,"[1]; Run 1, 0.1 μg/ml CDDP",0.418
same,Average CVE 48 h,"[1]; Run 1, 0.1 μg/ml CDDP",0.541
same,Average CVE 72 h,"[1]; Run 1, 0.1 μg/ml CDDP",0.684
same,Average CVE 24 h,"[1]; Run 1, 1 μg/ml CDDP",0.327
same,Average CVE 48 h,"[1]; Run 1, 1 μg/ml CDDP",0.252
same,Average CVE 72 h,"[1]; Run 1, 1 μg/ml CDDP",0.558
same,Average CVE 24 h,"[1]; Run 1, 10 μg/ml CDDP",0.289
same,Average CVE 48 h,"[1]; Run 1, 10 μg/ml CDDP",0.467
same,Average CVE 72 h,"[1]; Run 1, 10 μg/ml CDDP",0.423
same,Average CVE 24 h,"[1]; Run 1, 100 μg/ml CDDP",0.359
same,Average CVE 48 h,"[1]; Run 1, 100 μg/ml CDDP",0.306
same,Average CVE 72 h,"[1]; Run 1, 100 μg/ml CDDP",0.398
same,Average CVE 24 h,"[1]; Run 2, 0.1 μg/ml CDDP",0.463
same,Average CVE 48 h,"[1]; Run 2, 0.1 μg/ml CDDP",0.408
same,Average CVE 72 h,"[1]; Run 2, 0.1 μg/ml CDDP",0.448
same,Average CVE 24 h,"[1]; Run 2, 1 μg/ml CDDP",0.227
same,Average CVE 48 h,"[1]; Run 2, 1 μg/ml CDDP",0.29
same,Average CVE 72 h,"[1]; Run 2, 1 μg/ml CDDP",0.522
same,Average CVE 24 h,"[1]; Run 2, 10 μg/ml CDDP",0.278
same,Average CVE 48 h,"[1]; Run 2, 10 μg/ml CDDP",0.207
same,Average CVE 72 h,"[1]; Run 2, 10 μg/ml CDDP",0.299
same,Average CVE 24 h,"[1]; Run 2, 100 μg/ml CDDP",0.276
same,Average CVE 48 h,"[1]; Run 2, 100 μg/ml CDDP",0.237
same,Average CVE 72 h,"[1]; Run 2, 100 μg/ml CDDP",0.214
same,MTT 24 h Average,"[2]; 22Rv1 Run 1, 0.1 μg/ml CDDP",0.042
same,MTT 48 h Average,"[2]; 22Rv1 Run 1, 0.1 μg/ml CDDP",0.141
same,MTT 72 h Average,"[2]; 22Rv1 Run 1, 0.1 μg/ml CDDP",0.168
same,MTT 24 h Average,"[2]; 22Rv1 Run 1, 1 μg/ml CDDP",0.013
same,MTT 48 h Average,"[2]; 22Rv1 Run 1, 1 μg/ml CDDP",0.013
same,MTT 72 h Average,"[2]; 22Rv1 Run 1, 1 μg/ml CDDP",0.015
same,MTT 24 h Average,"[2]; 22Rv1 Run 1, 10 μg/ml CDDP",0.033
same,MTT 48 h Average,"[2]; 22Rv1 Run 1, 10 μg/ml CDDP",0.013
same,MTT 72 h Average,"[2]; 22Rv1 Run 1, 10 μg/ml CDDP",0.01
same,MTT 24 h Average,"[2]; 22Rv1 Run 1, 100 μg/ml CDDP",0.011
same,MTT 48 h Average,"[2]; 22Rv1 Run 1, 100 μg/ml CDDP",0.008
same,MTT 72 h Average,"[2]; 22Rv1 Run 1, 100 μg/ml CDDP",0.009
same,MTT 24 h Average,"[2]; 22Rv1 Run 2, 0.1 μg/ml CDDP",0.077
same,MTT 48 h Average,"[2]; 22Rv1 Run 2, 0.1 μg/ml CDDP",0.172
same,MTT 72 h Average,"[2]; 22Rv1 Run 2, 0.1 μg/ml CDDP",0.29
same,MTT 24 h Average,"[2]; 22Rv1 Run 2, 1 μg/ml CDDP",0.011
same,MTT 48 h Average,"[2]; 22Rv1 Run 2, 1 μg/ml CDDP",0.014
same,MTT 72 h Average,"[2]; 22Rv1 Run 2, 1 μg/ml CDDP",0.016
same,MTT 24 h Average,"[2]; 22Rv1 Run 2, 10 μg/ml CDDP",0.019
same,MTT 48 h Average,"[2]; 22Rv1 Run 2, 10 μg/ml CDDP",0.016
same,MTT 72 h Average,"[2]; 22Rv1 Run 2, 10 μg/ml CDDP",0.013
same,MTT 24 h Average,"[2]; 22Rv1 Run 2, 100 μg/ml CDDP",0.009
same,MTT 48 h Average,"[2]; 22Rv1 Run 2, 100 μg/ml CDDP",0.008
same,MTT 72 h Average,"[2]; 22Rv1 Run 2, 100 μg/ml CDDP",0.008
same,"Average absorbance, MTT 24 h",[2]; 0.1 μg/ml CDDP,0.08
same,"Average absorbance, MTT 48 h",[2]; 0.1 μg/ml CDDP,0.135
same,"Average absorbance, MTT 72 h",[2]; 0.1 μg/ml CDDP,0.128
same,"Average absorbance, MTT 24 h",[2]; 1 μg/ml CDDP,0.015
same,"Average absorbance, MTT 48 h",[2]; 1 μg/ml CDDP,0.016
same,"Average absorbance, MTT 72 h",[2]; 1 μg/ml CDDP,0.015
same,"Average absorbance, MTT 24 h",[2]; 10 μg/ml CDDP,0.023
same,"Average absorbance, MTT 48 h",[2]; 10 μg/ml CDDP,0.017
same,"Average absorbance, MTT 72 h",[2]; 10 μg/ml CDDP,0.013
same,"Average absorbance, MTT 24 h",[2]; 100 μg/ml CDDP,0.011
same,"Average absorbance, MTT 48 h",[2]; 100 μg/ml CDDP,0.011
same,"Average absorbance, MTT 72 h",[2]; 100 μg/ml CDDP,0.011
